Experimental data from patent publication US6117841A, “Substituted peptidylamine calcium channel blockers” (Warner-Lambert Company, priority 1999, dated 2000).

What follows are compounds tested against T1, N-type Ca^2+ Channel (Homo sapiens, UniProt Q00975) (assay: Measurement of N-type Ca2+ channel blocking potencies in IMR-32 cells using the fluorescent Ca2+ indicator Indo-1). Details: not given.
T1 construct: host or cells: IMR-32 cells differentiated with dibutyryl cAMP and bromodeoxyuridine
T1 sequence (Q00975 whole entry): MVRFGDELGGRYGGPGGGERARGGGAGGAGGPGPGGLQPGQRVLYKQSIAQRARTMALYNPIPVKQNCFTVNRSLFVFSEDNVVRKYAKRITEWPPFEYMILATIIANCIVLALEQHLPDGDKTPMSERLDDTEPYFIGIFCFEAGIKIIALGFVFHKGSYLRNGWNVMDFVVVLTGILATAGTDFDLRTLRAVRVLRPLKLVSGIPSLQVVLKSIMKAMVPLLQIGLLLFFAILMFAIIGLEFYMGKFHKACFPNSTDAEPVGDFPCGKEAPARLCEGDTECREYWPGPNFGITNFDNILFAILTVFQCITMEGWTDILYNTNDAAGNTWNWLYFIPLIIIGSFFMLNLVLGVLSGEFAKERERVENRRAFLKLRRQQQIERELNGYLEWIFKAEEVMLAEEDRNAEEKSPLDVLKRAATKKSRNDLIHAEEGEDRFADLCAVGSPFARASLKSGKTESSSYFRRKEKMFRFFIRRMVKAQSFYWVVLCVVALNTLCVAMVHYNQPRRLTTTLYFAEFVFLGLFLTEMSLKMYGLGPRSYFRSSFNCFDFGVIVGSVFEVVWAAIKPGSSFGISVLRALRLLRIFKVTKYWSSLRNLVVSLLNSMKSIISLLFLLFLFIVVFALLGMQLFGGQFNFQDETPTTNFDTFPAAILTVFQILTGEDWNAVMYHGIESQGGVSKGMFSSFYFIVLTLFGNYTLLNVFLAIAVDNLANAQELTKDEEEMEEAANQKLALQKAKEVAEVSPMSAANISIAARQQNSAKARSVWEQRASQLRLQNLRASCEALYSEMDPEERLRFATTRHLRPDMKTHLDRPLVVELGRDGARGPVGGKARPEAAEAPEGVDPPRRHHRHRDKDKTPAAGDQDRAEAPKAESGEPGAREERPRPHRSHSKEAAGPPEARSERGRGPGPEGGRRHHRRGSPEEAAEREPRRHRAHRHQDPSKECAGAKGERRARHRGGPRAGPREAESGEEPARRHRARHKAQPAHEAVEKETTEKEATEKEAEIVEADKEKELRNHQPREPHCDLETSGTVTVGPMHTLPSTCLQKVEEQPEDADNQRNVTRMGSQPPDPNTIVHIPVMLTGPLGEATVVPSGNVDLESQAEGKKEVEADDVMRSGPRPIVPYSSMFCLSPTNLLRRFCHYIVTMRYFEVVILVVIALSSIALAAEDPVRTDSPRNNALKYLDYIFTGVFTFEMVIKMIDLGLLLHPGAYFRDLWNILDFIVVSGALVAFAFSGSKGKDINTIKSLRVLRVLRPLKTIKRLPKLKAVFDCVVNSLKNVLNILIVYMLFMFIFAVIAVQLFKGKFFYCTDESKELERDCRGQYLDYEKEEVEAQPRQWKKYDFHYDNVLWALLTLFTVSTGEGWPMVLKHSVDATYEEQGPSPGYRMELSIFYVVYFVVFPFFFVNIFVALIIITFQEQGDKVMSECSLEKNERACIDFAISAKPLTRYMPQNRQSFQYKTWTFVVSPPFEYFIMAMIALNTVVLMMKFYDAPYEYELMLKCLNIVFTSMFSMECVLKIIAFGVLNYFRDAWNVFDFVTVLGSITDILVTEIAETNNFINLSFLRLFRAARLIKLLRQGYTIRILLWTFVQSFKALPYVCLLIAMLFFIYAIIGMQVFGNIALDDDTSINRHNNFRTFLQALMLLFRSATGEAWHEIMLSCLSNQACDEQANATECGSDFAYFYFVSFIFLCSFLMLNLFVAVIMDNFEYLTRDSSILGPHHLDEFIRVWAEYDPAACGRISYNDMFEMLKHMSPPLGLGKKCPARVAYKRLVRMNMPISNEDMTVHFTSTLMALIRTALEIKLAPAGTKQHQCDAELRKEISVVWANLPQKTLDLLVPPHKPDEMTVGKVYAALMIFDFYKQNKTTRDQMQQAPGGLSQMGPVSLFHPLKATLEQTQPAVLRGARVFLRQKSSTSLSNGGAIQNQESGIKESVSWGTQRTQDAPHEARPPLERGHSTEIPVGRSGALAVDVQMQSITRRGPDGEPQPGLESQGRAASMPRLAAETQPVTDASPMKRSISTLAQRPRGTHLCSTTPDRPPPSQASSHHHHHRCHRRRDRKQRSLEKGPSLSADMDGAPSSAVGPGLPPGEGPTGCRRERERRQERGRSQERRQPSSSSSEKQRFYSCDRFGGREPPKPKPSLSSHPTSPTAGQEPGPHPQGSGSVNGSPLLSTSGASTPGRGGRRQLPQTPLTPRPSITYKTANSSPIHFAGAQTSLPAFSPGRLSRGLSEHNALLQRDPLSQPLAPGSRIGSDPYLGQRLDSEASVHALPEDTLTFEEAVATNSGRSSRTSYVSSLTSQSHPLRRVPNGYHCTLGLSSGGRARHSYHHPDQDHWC
T1 sequence (P54284 whole entry partner): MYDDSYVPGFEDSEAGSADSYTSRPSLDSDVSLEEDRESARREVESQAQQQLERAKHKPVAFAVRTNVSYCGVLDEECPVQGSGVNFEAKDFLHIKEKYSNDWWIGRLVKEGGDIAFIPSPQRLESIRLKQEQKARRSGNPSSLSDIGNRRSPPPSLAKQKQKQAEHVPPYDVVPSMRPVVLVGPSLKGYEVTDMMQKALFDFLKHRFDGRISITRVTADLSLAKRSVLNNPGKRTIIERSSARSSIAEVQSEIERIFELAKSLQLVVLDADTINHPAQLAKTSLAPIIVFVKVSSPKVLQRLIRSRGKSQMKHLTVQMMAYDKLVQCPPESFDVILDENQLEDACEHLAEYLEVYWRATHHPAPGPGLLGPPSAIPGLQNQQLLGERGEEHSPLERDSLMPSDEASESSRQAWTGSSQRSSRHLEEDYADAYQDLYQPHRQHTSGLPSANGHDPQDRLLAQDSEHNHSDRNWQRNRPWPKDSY
T1 sequence (P54289 25-946 partner limits assumed): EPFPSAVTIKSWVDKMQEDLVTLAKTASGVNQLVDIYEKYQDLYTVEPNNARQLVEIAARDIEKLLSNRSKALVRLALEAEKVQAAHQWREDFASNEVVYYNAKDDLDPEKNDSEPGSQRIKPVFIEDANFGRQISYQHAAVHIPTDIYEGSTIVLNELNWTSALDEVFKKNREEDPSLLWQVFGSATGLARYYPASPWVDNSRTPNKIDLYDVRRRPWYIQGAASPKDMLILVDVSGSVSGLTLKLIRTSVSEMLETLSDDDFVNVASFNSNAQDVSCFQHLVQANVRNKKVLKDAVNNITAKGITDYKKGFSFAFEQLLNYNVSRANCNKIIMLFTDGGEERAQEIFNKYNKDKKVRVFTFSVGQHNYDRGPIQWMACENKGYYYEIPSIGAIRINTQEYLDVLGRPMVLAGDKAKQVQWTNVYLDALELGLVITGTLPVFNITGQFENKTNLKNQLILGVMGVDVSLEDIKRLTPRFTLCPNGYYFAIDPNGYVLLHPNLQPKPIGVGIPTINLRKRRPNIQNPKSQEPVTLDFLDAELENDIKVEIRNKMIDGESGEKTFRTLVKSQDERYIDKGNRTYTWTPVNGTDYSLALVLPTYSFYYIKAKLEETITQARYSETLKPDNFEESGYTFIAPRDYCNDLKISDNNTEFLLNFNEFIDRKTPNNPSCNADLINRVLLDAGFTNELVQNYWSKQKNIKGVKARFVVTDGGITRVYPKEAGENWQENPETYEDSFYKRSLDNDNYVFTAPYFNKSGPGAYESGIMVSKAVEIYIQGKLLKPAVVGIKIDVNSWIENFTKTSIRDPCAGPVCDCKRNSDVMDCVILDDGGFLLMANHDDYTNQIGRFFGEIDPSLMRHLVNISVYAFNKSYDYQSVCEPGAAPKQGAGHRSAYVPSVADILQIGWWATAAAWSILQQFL
T1 sequence (P54289 947-1103 partner limits assumed): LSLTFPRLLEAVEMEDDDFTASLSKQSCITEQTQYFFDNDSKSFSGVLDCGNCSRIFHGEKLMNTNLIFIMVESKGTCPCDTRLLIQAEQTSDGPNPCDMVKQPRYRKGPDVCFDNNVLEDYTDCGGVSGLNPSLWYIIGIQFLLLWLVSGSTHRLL
Format: cell-based
Procedure, shortened: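 IMR-32 cells were differentiated 7–13 days (1 mM dibutyryl cAMP, 2.5 µM BrdU) and Indo-1-loaded. They were preincubated 10 min at 30 °C with compound and 5 µM nitrendipine in HEPES/Tris pH 7.4 HBSS with 0.5% BSA, then KCl/CaCl2-depolarized. The peak-minus-basal 400/490 nm emission ratio gave IC50 by four-parameter logistic fit.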
In the case of `CC(C)C[C@@H](C(=O)N[C@@H](Cc1ccc(OCc2ccccc2)cc1)C(=O)N1CCN(C)CC1)N(C)C` (relative stereo) [Example 6, [S-(R*,R*)]-2-Dimethylamino-4-methyl-pentanoic acid [1-(4-benzyloxy-benzyl)-2-(4-methyl-piperazin-1-yl)-2-oxo-ethyl]-amide], the “IMR 32 % of Blockade @ 1 μM” value is reported as 16% and the “IMR 32 % of Blockade @ 10 μM” value is reported as 31%.

Same assay, conditions: 1 μM; IMR-32 cells, 5 μM nitrendipine
For `CC(C)C[C@@H](C(=O)N[C@@H](Cc1ccc(OCc2ccccc2)cc1)C(=O)NC(C)(C)C)N(C)Cc1cccnc1` (relative stereo) [Example 101, [S-(R*,R*)]-4-Methyl-2-(methyl-pyridin-3-ylmethyl-amino)-pentanoic acid [2-(4-benzyloxy-phenyl)-1-tert-butylcarbamoyl-ethyl]-amide], the “IMR 32 % of Blockade @ 1 μM” value was 26%.
In the case of `CC(C)C[C@@H](C(=O)N[C@@H](Cc1ccc(OCc2ccccc2)cc1)C(=O)N1CCN(C)CC1)N(C)C1CCCCC1` (relative stereo) [Example 24, [S-(R*,R*)]-2-(Cyclohexyl-methyl-amino)4-methyl-pentanoic acid [1-(4-benzyloxy-benzyl)-2-(4-methyl-piperazin-1-yl)-2-oxo-ethyl]-amide], the “IMR 32 % of Blockade @ 1 μM” value is reported as 32%.

Same assay, conditions: 10 μM; IMR-32 cells, 5 μM nitrendipine
In the case of `CC(C)C[C@@H](C(=O)N[C@@H](Cc1ccc(OCc2ccccc2)cc1)C(=O)N1CCN(C)CC1)N(C)C1CCCCC1` (relative stereo) [Example 24, [S-(R*,R*)]-2-(Cyclohexyl-methyl-amino)4-methyl-pentanoic acid [1-(4-benzyloxy-benzyl)-2-(4-methyl-piperazin-1-yl)-2-oxo-ethyl]-amide], the “IMR 32 % of Blockade @ 10 μM” value is reported as 84%.

Same assay, conditions: IMR-32 cells, 5 μM nitrendipine; Examples 116-140; read-out: IMR 32% of Blockade @
With `CC(C)C[C@@H](C(=O)N[C@@H](Cc1ccc(OCc2ccccc2)cc1)C(=O)NCCN1CCCC1)N1CCOCC1` (relative stereo) [Example 125, [S-(R*,R*)]-4-Methyl-2-morpholin-4-yl-pentanoic acid [2-(4-benzyloxy-phenyl)-1-(2-pyrrolidin-1-yl-ethylcarbamoyl)-ethyl]-amide] the IC50 was 9700 nM.
Compound `CC(C)C[C@@H](C(=O)N[C@@H](Cc1ccc(OCc2ccccc2)cc1)C(=O)NCCN1CCSCC1)N1CCOCC1` (relative stereo) [Example 122, [S-(R*,R*)]-4-Methyl-2-morpholin-4-yl-pentanoic acid [2-(4-benzyloxy-phenyl)-1-(2-thiomorpholin-4-yl-ethylcarbamoyl)-ethyl]-amide] has an IC50 of 3100 nM.
Compound `CC(C)C[C@@H](C(=O)N[C@@H](Cc1ccc(OCc2ccccc2)cc1)C(=O)NC(C)CO)N(C)C` (relative stereo) [Example 136, [S-(R*,R*)]-2-Dimethylamino-4-methyl-pentanoic acid [2-(4-benzyloxy-phenyl)-1-(2-aminopropan-1-olcarbamoyl)-ethyl]-amide] has an IC50 of 3600 nM.
In the case of `CC(C)C[C@@H](C(=O)N[C@@H](Cc1ccc(OCc2ccccc2)cc1)C(=O)NCCN1CCCC1)N(C)C` (relative stereo) [Example 139, [S-(R*,R*)]-2-Dimethylamino-4-methyl-pentanoic acid [2-(4-benzyloxy-phenyl)-1-(2-pyrrolidin-1-yl-ethylcarbamoyl)-ethyl]-amide], the IC50 is reported as 38800 nM.
Work on `CC(C)C[C@@H](C(=O)N[C@@H](Cc1ccc(OCc2ccccc2)cc1)C(=O)NCCN1CCOCC1)N(C)C` (relative stereo) [Example 132, [S-(R*,R*)]-2-Dimethylamino-4-methyl-pentanoic acid [2-(4-benzyloxy-phenyl)-1-(2-morpholin-4-yl-ethylcarbamoyl)-ethyl]-amide] yielded an IC50 of 12000 nM.

Same assay, conditions: IMR-32 cells, K+ depolarization, 5 μM nitrendipine to block L-type channels; read-out: IMR 32 IC50
With `CC(C)=CCN(C)[C@@H](CC(C)C)C(=O)N[C@@H](Cc1ccc(OCc2ccccc2)cc1)C(=O)NC(C)(C)C` (relative stereo) [Example 51, [S-(R*,R*)]4-Methyl-2-[methyl-(3-methyl-but-2-enyl)-amino]-pentanoic acid [2-(4-benzyloxy-phenyl)-1-tert-butylcarbamoyl-ethyl]-amide] the IC50 was 1300 nM.
`CC(C)CCN(C)[C@@H](CC(C)C)C(=O)N[C@@H](Cc1ccc(OCc2ccccc2)cc1)C(=O)NC1CCN(Cc2ccccc2)C1` (relative stereo) [Example 67, [S-(R*,R*)]-4-Methyl-2-[methyl-(3-methyl-butyl)-amino]-pentanoic acid [2-(4-benzyloxy-phenyl)-1-(1-benzyl-pyrrolidin-3-ylcarbamoyl)-ethyl]-amide] was tested, and the IC50 was 400 nM.
`CC(C)CCN(C)[C@@H](CC(C)C)C(=O)N[C@@H](Cc1ccc(OCc2ccccc2)cc1)C(=O)NCCCn1ccnc1` (relative stereo) [Example 59, [S-(R*,R*)]-4-Methyl-2-[methyl-(3-methyl-butyl)-amino]-pentanoic acid [2-(4-benzyloxy-phenyl)-1-(3-imidazol-1-yl-propylcarbamoyl)-ethyl]-amide] showed an IC50 of 1600 nM.
With `CC(C)C[C@H](NC1CCOCC1)C(=O)N[C@@H](Cc1ccc(OCc2ccccc2)cc1)C(=O)N1CCSCC1` (relative stereo) [Example 72, [S-(R*,R*)]-4-Methyl-2-(tetrahydro-pyran-4-ylamino)-pentanoic acid [1-(4-benzyloxy-benzyl)-2-oxo-2-thiomorpholin-4-yl-ethyl]-amide] the IC50 was 1200 nM.
`CC(C)C[C@H](NC1CCOCC1)C(=O)N[C@@H](Cc1ccc(OCc2ccccc2)cc1)C(=O)NCCN1CCCCC1` (relative stereo) [Example 77, [S-(R*,R*)]-4-Methyl-2-(tetrahydro-pyran-4-ylamino)-pentanoic acid [2-(4-benzyloxy-phenyl)-1-(2-piperidin-1-yl-ethylcarbamoyl)-ethyl]-amide] gave an IC50 of 2600 nM.
`CC(C)C[C@H](NC1CCOCC1)C(=O)N[C@@H](Cc1ccc(OCc2ccccc2)cc1)C(=O)NC1CCN(Cc2ccccc2)C1` (relative stereo) [Example 76, [S-(R*,R*)]-4-Methyl-2-(tetrahydro-pyran4-ylamino)-pentanoic acid [2-(4-benzyloxy-phenyl)-1-(1-benzyl-pyrrolidin-3-ylcarbamoyl)-ethyl]-amide] showed an IC50 of 600 nM.
With `CCOC(=O)CN(C)[C@@H](CC(C)C)C(=O)N[C@@H](Cc1ccc(OCc2ccccc2)cc1)C(=O)NC(C)(C)C` (relative stereo) [Example 96, [S-(R*,R*)]-({1-[2-(4-Benzyloxy-phenyl)-1-tert-butylcarbamoyl-ethylcarbamoyl]-3-methyl-butyl}-methyl-amino)-acetic acid ethyl ester] the IC50 was 4400 nM.
`CC(C)CC(NC1CCOCC1)C(=O)NC(Cc1ccc(OCc2ccccc2)cc1)C(=O)OC(C)(C)C` (stereo not drawn) [Example 85, [S-(R*,R*)]-3-(4-Benzyloxy-phenyl)-2-[4-methyl-2-(tetrahydro-pyran-4-ylamino)-pentanoylamino]-propionic acid tert-butyl ester] showed an IC50 of 320 nM.
`CC(C)CCN(C)[C@@H](CC(C)C)C(=O)N[C@@H](Cc1ccc(OCc2ccccc2)cc1)C(=O)NCCN1CCCC1` (relative stereo) [Example 64, [S-(R*,R*)]-4-Methyl-2-[methyl-(3-methyl-butyl)-amino]-pentanoic acid [2-(4-benzyloxy-phenyl)-1-(2-pyrrolidin-1-yl-ethylcarbamoyl)-ethyl]-amide] showed an IC50 of 2400 nM.
For `CC(C)CCN(C)[C@@H](CC(C)C)C(=O)NC(Cc1ccc(OCc2ccccc2)cc1)C(=O)NCCNCc1ccccc1` (stereo in doubt) [Example 60, [S(R*,R*)]-4-Methyl-2-[methyl-(3-methyl-butyl)-amino]-pentanoic acid [1-(2-benzylamino-ethylcarbamoyl)-2-(4-benzyloxy-phenyl)-ethyl]-amide], the IC50 was 200 nM.
`CC(C)CCNC(CC(C)C)C(=O)NC(Cc1ccc(OCc2ccccc2)cc1)C(=O)OC(C)(C)C` (stereo not drawn) [Example 95, [S-(R*,R*)]-3-(4-Benzyloxy-phenyl)2-[4-methyl-2-(3-methyl-butylamino)-pentanoylamino]-propionic acid tert-butyl ester] gave an IC50 of 460 nM.
With `CC(C)CC(NC1CCOCC1)C(=O)NC(Cc1ccc(OCc2ccccc2)cc1)C(=O)NC(C)(C)C` (stereo not drawn) [Example 78, [S-(R*,R*)]-4-Methyl-2-(tetrahydro-pyran-4-ylamino)-pentanoic acid [2-(4-benzyloxy-phenyl)-1-tert-butylcarbamoyl-ethyl]-amide] the IC50 was 1600 nM.
For `CC(C)CC(C(=O)NC(Cc1ccc(OCc2ccccc2)cc1)C(=O)NC(C)(C)C)N(C)Cc1ccc(F)cc1` (stereo not drawn) [Example 80, [S-(R*,R*)]-2-[(4-Fluoro-benzyl)-methyl-amino]-4-methyl-pentanoic acid [2-(4-benzyloxy-phenyl)-1-tert-butylcarbamoyl-ethyl]-amide], the IC50 was 300 nM.
For `CC(C)C[C@@H](C(=O)N[C@@H](Cc1ccc(OCc2ccccc2)cc1)C(=O)NC(C)(C)C)N(C)Cc1ccc(Br)cc1` (relative stereo) [Example 81, [S-(R*,R*)]-2-[(4-Bromo-benzyl)-methyl-amino]4-methyl-pentanoic acid [2-(4-benzyloxy-phenyl)-1-tert-butylcarbamoyl-ethyl]-amide], the IC50 was 160 nM.
`CC(C)CCN(C)[C@@H](CC(C)C)C(=O)N[C@@H](Cc1ccc(OCc2ccccc2)cc1)C(=O)N1CCC(O)CC1` (relative stereo) [Example 65, [S-(R*,R*)]-4-Methyl-2-[methyl-(3-methyl-butyl)-amino]-pentanoic acid [1-(4-benzyloxy-benzyl)-2-(4-hydroxy-piperidin-1-yl)-2-oxo-ethyl]-amide] showed an IC50 of 1100 nM.

Same assay, conditions: read-out: IMR 32% of Blockade @
`CC(C)C[C@@H](C(=O)N[C@@H](Cc1ccc(OCc2ccccc2)cc1)C(=O)NCCc1ccccn1)N(C)C` (relative stereo) [Example 133, [S-(R*,R*)]-2-Dimethylamino-4-methyl-pentanoic acid [2-(4-benzyloxy-phenyl)-1-(2-(2-aminoethyl)pyridinecarbamoyl)-ethyl]-amide] was tested, and the IC50 was 5900 nM.

Same assay, conditions: read-out: IMR 32 IC50
With `CC(C)C[C@@H](C(=O)N[C@@H](Cc1ccc(OCc2ccccc2)cc1)C(=O)NC(C)(C)C)N(C)Cc1ccc(N(C)C)cc1` (relative stereo) [Example 40, [S-(R*,R*)]-2-[(4-Dimethylamino-benzyl)-methyl-amino]-4-methyl-pentanoic acid [2-(4-benzyloxy-phenyl)-1-tert-butylcarbamoyl-ethyl]-amide] the IC50 was 280 nM.
